The compounds below were run against FGFR3 enzyme (Homo sapiens (Human), UniProt P22607) (assay: FGFR Enzymatic Assay (peptide phosphorylation, FRET), FGFR3). Conditions: IC50 ratio showing FGFR3 selectivity; pre-incubated for 4 hours.
FGFR3 enzyme, sequence (P22607 23-806): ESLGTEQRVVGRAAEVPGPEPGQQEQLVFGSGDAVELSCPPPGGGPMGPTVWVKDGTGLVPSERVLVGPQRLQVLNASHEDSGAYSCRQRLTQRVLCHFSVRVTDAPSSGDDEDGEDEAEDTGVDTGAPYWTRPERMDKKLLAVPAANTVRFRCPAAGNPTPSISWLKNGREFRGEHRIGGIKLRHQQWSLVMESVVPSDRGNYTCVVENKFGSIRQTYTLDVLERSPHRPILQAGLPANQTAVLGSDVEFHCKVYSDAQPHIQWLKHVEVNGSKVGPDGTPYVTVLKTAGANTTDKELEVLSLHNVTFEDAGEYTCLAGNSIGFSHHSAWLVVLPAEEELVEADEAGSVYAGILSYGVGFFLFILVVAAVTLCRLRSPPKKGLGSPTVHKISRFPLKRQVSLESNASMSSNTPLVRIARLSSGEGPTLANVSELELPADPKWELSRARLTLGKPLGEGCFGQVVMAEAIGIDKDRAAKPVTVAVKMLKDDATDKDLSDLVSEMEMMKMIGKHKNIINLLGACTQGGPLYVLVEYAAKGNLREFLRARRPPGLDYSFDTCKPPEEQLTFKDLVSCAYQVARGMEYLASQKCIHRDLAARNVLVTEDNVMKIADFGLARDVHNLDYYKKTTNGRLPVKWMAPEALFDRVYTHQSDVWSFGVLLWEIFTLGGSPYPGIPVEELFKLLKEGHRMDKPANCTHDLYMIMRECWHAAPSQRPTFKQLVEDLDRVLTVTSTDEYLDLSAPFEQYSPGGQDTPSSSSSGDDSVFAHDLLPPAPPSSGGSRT
Type: biochemical
Experimental: The inhibitor potency of the exemplified compounds was measured in an enzyme assay that measures peptide phosphorylation using FRET measurements to detect product formation. Inhibitors were serially diluted in DMSO and a volume of 0.5 μL was transferred to the wells of a 384-well plate.
GraphPad prism3 was used to analyze the data.
`COc1cc(OC)c(F)c(N2Cc3cnc(-c4cn(C)nc4C)cc3N(c3ccc(C#N)cc3)C2=O)c1F` [Example 44, 4-(3-(2,6-difluoro-3,5-dimethoxyphenyl)-7-(1,3-dimethyl-1H-pyrazol-4-yl)-2-oxo-3,4-dihydropyrido[4,3-d]pyrimidin-1(2H)-yl)benzonitrile] was tested, and the FGFR1/FGFR3 was >10 and the FGFR4/FGFR3 was >10. With `CCc1cc(CN2C(=O)N(c3c(F)c(OC)cc(OC)c3F)Cc3cnc(-c4cn(C)nc4C)cc32)no1` [Example 64, 3-(2,6-difluoro-3,5-dimethoxyphenyl)-7-(1,3-dimethyl-1H-pyrazol-4-yl)-1-((5-ethylisoxazol-3-yl)methyl)-3,4-dihydropyrido[4,3-d]pyrimidin-2(1H)-one] the FGFR1/FGFR3 was >10 and the FGFR4/FGFR3 was >10. `COc1cc(OC)c(F)c(N2Cc3cnc(-c4ccc(C#N)nc4)cc3C3(CC3)C2=O)c1F` [Example 20, 5-(2′-(2,6-difluoro-3,5-dimethoxyphenyl)-3′-oxo-2′,3′-dihydro-1′H-spiro[cyclopropane-1,4′-[2,7]naphthyridine]-6′-yl)picolinonitrile] was tested, and the FGFR1/FGFR3 was >5. `COc1cc(OC)c(F)c(N2Cc3cnc(-c4cn(C)nc4C)cc3N(Cc3nnc(C)o3)C2=O)c1F` [Example 46, 3-(2,6-difluoro-3,5-dimethoxyphenyl)-7-(1,3-dimethyl-1H-pyrazol-4-yl)-1-[(5-methyl-1,3,4-oxadiazol-2-yl)methyl]-3,4-dihydropyrido[4,3-d]pyrimidin-2(1H)-one] was tested, and the FGFR1/FGFR3 was >10 and the FGFR4/FGFR3 was >10. `COc1cc(OC)c(F)c(N2Cc3cnc(-c4cnn(CC5CN(C(C)=O)C5)c4)cc3C3(CC3)C2=O)c1F` [Example 167, 6′-(1-((1-acetylazetidin-3-yl)methyl)-1H-pyrazol-4-yl)-2′-(2,6-difluoro-3,5-dimethoxyphenyl)-1′H-spiro[cyclopropane-1,4′-[2,7]naphthyridin]-3′(2′H)-one] was tested, and the FGFR1/FGFR3 was >3 and the FGFR4/FGFR3 was >3. With `CCN1C(=O)N(c2c(F)c(OC)cc(OC)c2F)Cc2cnc(-c3cn(CCN4CCOCC4)nc3C)cc21` [Example 49, 3-(2,6-difluoro-3,5-dimethoxyphenyl)-1-ethyl-7-(3-methyl-1-(2-morpholinoethyl)-1H-pyrazol-4-yl)-3,4-dihydropyrido[4,3-d]pyrimidin-2(1H)-one] the FGFR1/FGFR3 was >5 and the FGFR4/FGFR3 was >1. For `CCN1C(=O)N(c2c(F)c(OC)cc(OC)c2F)Cc2cnc(-c3ccccc3)cc21` [Example 22, 3-(2,6-difluoro-3,5-dimethoxyphenyl)-1-ethyl-7-phenyl-3,4-dihydropyrido[4,3-d]pyrimidin-2(1H)-one], the FGFR1/FGFR3 was >5. In the case of `COc1cc(OC)c(F)c(N2Cc3cnc(-c4cnn(C)c4)cc3C3(CC3)C2=O)c1F` [Example 186, 2′-(2,6-difluoro-3,5-dimethoxyphenyl)-6′-(1-methyl-H-pyrazol-4-yl)-1′,2′-dihydro-3′H-spiro[cyclopropane-1,4′-[2,7]naphthyridin]-3′-one], the FGFR1/FGFR3 is reported as >5 and the FGFR4/FGFR3 is reported as >5. With `COc1cc(OC)c(F)c(N2Cc3cnc(-c4cn(C5CCS(=O)(=O)C5)nc4C)cc3C3(CC3)C2=O)c1F` (centres unmarked) [Example 54, 2′-(2,6-difluoro-3,5-dimethoxyphenyl)-6′-[1-(1,1-dioxidotetrahydro-3-thienyl)-3-methyl-1H-pyrazol-4-yl]-1′,2′-dihydro-3′H-spiro[cyclopropane-1,4′-[2,7]naphthyridin]-3′-one] the FGFR1/FGFR3 was >5 and the FGFR4/FGFR3 was >1. `COc1cc(OC)c(F)c(N2Cc3cnc(-c4cn(C)nc4C)cc3N(c3ccc(C#N)cn3)C2=O)c1F` [Example 79, 6-(3-(2,6-difluoro-3,5-dimethoxyphenyl)-7-(1,3-dimethyl-1H-pyrazol-4-yl)-2-oxo-3,4-dihydropyrido[4,3-d]pyrimidin-1(2H)-yl)nicotinonitrile] was tested, and the FGFR1/FGFR3 was >5 and the FGFR4/FGFR3 was >3. `COc1cc(CN2C(=O)N(c3c(F)c(OC)cc(OC)c3F)Cc3cnc(-c4cn(C)nc4C)cc32)ccn1` [Example 58, 3-(2,6-difluoro-3,5-dimethoxyphenyl)-7-(1,3-dimethyl-1H-pyrazol-4-yl)-1-((2-methoxypyridin-4-yl)methyl)-3,4-dihydropyrido[4,3-d]pyrimidin-2(1H)-one] was tested, and the FGFR1/FGFR3 was >10 and the FGFR4/FGFR3 was >10. For `CCn1cc(-c2cc3c(cn2)CN(c2c(F)c(OC)cc(OC)c2F)C(=O)C32CC2)c(C)n1` [Example 158, 2′-(2,6-difluoro-3,5-dimethoxyphenyl)-6′-(1-ethyl-3-methyl-1H-pyrazol-4-yl)-1′H-spiro[cyclopropane-1,4′-[2,7]naphthyridin]-3′(2′H)-one], the FGFR1/FGFR3 was >5 and the FGFR4/FGFR3 was >3. In the case of `COc1cc(OC)c(F)c(N2Cc3cnc(-c4cn(C)nc4C)cc3N(Cc3cnn(C)c3)C2=O)c1F` [Example 72, 3-(2,6-difluoro-3,5-dimethoxyphenyl)-7-(1,3-dimethyl-1H-pyrazol-4-yl)-1-((1-methyl-1H-pyrazol-4-yl)methyl)-3,4-dihydropyrido[4,3-d]pyrimidin-2(1H)-one], the FGFR1/FGFR3 is reported as >5 and the FGFR4/FGFR3 is reported as >10. With `COc1cc(OC)c(F)c(N2Cc3cnc(-c4cn(C)nc4C)cc3N(c3ccc4cn[nH]c4c3)C2=O)c1F` [Example 133, 3-(2,6-difluoro-3,5-dimethoxyphenyl)-7-(1,3-dimethyl-1H-pyrazol-4-yl)-1-(1H-indazol-6-yl)-3,4-dihydropyrido[4,3-d]pyrimidin-2(1H)-one] the FGFR1/FGFR3 was >3 and the FGFR4/FGFR3 was >5. For `COc1cc(OC)c(F)c(N2Cc3cnc(-c4cn(CCN(C)C)nc4C)cc3C3(CC3)C2=O)c1F` [Example 164, 2′-(2,6-difluoro-3,5-dimethoxyphenyl)-6′-(1-(2-(dimethylamino)ethyl)-3-methyl-1H-pyrazol-4-yl)-1′H-spiro[cyclopropane-1,4′-[2,7]naphthyridin]-3′(2′H)-one], the FGFR1/FGFR3 was >3 and the FGFR4/FGFR3 was >3. For `COc1cc(OC)c(F)c(N2Cc3cnc(-c4ccccc4)cc3C3(CC3)C2=O)c1F` [Example 17, 2′-(2,6-difluoro-3,5-dimethoxyphenyl)-6′-phenyl-1′H-spiro[cyclopropane-1,4′-[2,7]naphthyridin]-3′(2′H)-one], the FGFR1/FGFR3 was >10. For `CCCn1cc(N2C(=O)N(c3c(F)c(OC)cc(OC)c3F)Cc3cnc(-c4cn(C)nc4C)cc32)cn1` [Example 132, 3-(2,6-difluoro-3,5-dimethoxyphenyl)-7-(1,3-dimethyl-1H-pyrazol-4-yl)-1-(1-propyl-1H-pyrazol-4-yl)-3,4-dihydropyrido[4,3-d]pyrimidin-2(1H)-one], the FGFR1/FGFR3 was >3 and the FGFR4/FGFR3 was >5. In the case of `COc1cc(OC)c(F)c(N2Cc3cnc(-c4cn(CC(=O)N5CCOCC5)nc4C)cc3C3(CC3)C2=O)c1F` [Example 159, 2′-(2,6-difluoro-3,5-dimethoxyphenyl)-6′-(3-methyl-1-(2-morpholino-2-oxoethyl)-1H-pyrazol-4-yl)-1′H-spiro[cyclopropane-1,4′-[2,7]naphthyridin]-3′(2′H)-one], the FGFR1/FGFR3 is reported as >5 and the FGFR4/FGFR3 is reported as >3. In the case of `CCc1nnc(CN2C(=O)N(c3c(F)c(OC)cc(OC)c3F)Cc3cnc(-c4cn(C)nc4C)cc32)o1` [Example 67, 3-(2,6-difluoro-3,5-dimethoxyphenyl)-7-(1,3-dimethyl-1H-pyrazol-4-yl)-1-((5-ethyl-1,3,4-oxadiazol-2-yl)methyl)-3,4-dihydropyrido[4,3-d]pyrimidin-2(1H)-one], the FGFR1/FGFR3 is reported as >5 and the FGFR4/FGFR3 is reported as >10. `COc1cc(OC)c(F)c(N2Cc3cnc(-c4cn(C)nc4C)cc3N(C3CCOC3)C2=O)c1F` (centres unmarked) [Example 33, 3-(2,6-difluoro-3,5-dimethoxyphenyl)-7-(1,3-dimethyl-1H-pyrazol-4-yl)-1-(tetrahydrofuran-3-yl)-3,4-dihydropyrido[4,3-d]pyrimidin-2(1H)-one] was tested, and the FGFR1/FGFR3 was >5 and the FGFR4/FGFR3 was >5. With `CCN1C(=O)N(c2c(F)c(OC)cc(OC)c2F)Cc2cnc(-c3ccc(C(=O)NC(C)C)nc3)cc21` [Example 178, 5-(3-(2,6-difluoro-3,5-dimethoxyphenyl)-1-ethyl-2-oxo-1,2,3,4-tetrahydropyrido[4,3-d]pyrimidin-7-yl)-N-isopropylpicolinamide] the FGFR1/FGFR3 was >5 and the FGFR4/FGFR3 was >5. In the case of `CCn1cc(CN2C(=O)N(c3c(F)c(OC)cc(OC)c3F)Cc3cnc(-c4cn(C)nc4C)cc32)cn1` [Example 39, 3-(2,6-difluoro-3,5-dimethoxyphenyl)-7-(1,3-dimethyl-1H-pyrazol-4-yl)-1-((1-ethyl-1H-pyrazol-4-yl)methyl)-3,4-dihydropyrido[4,3-d]pyrimidin-2(1H)-one], the FGFR1/FGFR3 is reported as >10 and the FGFR4/FGFR3 is reported as >10. For `COc1cc(OC)c(F)c(N2Cc3cnc(-c4cnn(CCCN5CCOCC5)c4)cc3C3(CC3)C2=O)c1F` [Example 151, 2′-(2,6-difluoro-3,5-dimethoxyphenyl)-6′-(1-(3-morpholinopropyl)-1H-pyrazol-4-yl)-1′H-spiro[cyclopropane-1,4′-[2,7]naphthyridin]-3′(2′H)-one], the FGFR1/FGFR3 was >5 and the FGFR4/FGFR3 was >5. For `COc1cc(OC)c(F)c(N2Cc3cnc(-c4cn(C)nc4C)cc3N(Cc3ccc(C#N)nc3)C2=O)c1F` [Example 74, 5-((3-(2,6-difluoro-3,5-dimethoxyphenyl)-7-(1,3-dimethyl-1H-pyrazol-4-yl)-2-oxo-3,4-dihydropyrido[4,3-d]pyrimidin-1(2H)-yl)methyl)picolinonitrile], the FGFR1/FGFR3 was >5 and the FGFR4/FGFR3 was >5. For `COc1cc(OC)c(F)c(N2Cc3cnc(-c4ccc(C5(C#N)CCC5)nc4)cc3N(Cc3nnc(C)o3)C2=O)c1F` [Example 187, 1-(5-{3-(2,6-difluoro-3,5-dimethoxyphenyl)-1-[(5-methyl-1,3,4-oxadiazol-2-yl)methyl]-2-oxo-1,2,3,4-tetrahydropyrido[4,3-d]pyrimidin-7-yl}pyridin-2-yl)cyclobutanecarbonitrile], the FGFR1/FGFR3 was >10 and the FGFR4/FGFR3 was >10.

From patent publication US10251892B2, “Bicyclic heterocycles as FGFR4 inhibitors” (Incyte Corporation, priority 2015, dated 2019)
